Laboratory results from patent US8865751B2, “Thiazoles, imidazoles, and pyrazoles useful as inhibitors of protein kinases” (Vertex Pharmaceuticals Incorporated, priority 2006, dated 2014).
Where two headings read alike, the source gives them in different places.

Assays:
human Lck kinase = human Lck kinase (Homo sapiens, UniProt P06239); assay: Lck inhibition assay (spectrophotometric coupled-enzyme assay); assay type: biochemical
Procedure: The compounds are evaluated as inhibitors of human Lck kinase using a spectrophotometric assay.
An assay buffer solution was prepared which consisted of 25 mM HEPES (pH 7.5), 10 mM MgCl2, 250 μM NADH, 3 mM phosphoenolpyruvate, 43 μg/mL pyruvate kinase, 14 μg/mL lactate dehydrogenase, 560 μM ATP and 67 nM Lck. To 60 μL of this solution, in a 96 well plate, was added 2 μL of test compound stock solution in DMSO and the mixture allowed to equilibrate for 10 minutes at 30° C. The enzyme reaction was initiated by the addition of 5 μL 15 mg/mL poly Glu, Tyr (4:1) prepared in 25 mM HEPES (pH 7.5). Final assay concentrations of Lck and ATP are 60 nM and 500 μM respectively. Initial rate data was determined from the rate of change of absorbance at 340 nm (corresponding to stoichiometric consumption of NADH) using a Molecular Devices Spectramax plate reader (Sunnyvale, Calif.) over 10 min at 30° C. For each Ki determination 8 data points covering the test compound concentration range of 0-7.5 μM are obtained in duplicate. Ki values are calculated from initial rate data by non-linear regression using the Prism software package (Prism 4.0a, Graphpad Software, San Diego, Calif.).

human Src kinase = human Src kinase (Homo sapiens, UniProt P12931); assay: Src inhibition assay (spectrophotometric coupled-enzyme assay); assay type: biochemical; details: 25 nM Src, 100 μM ATP, poly Glu,Tyr (4:1), 30° C.
Sequence of human Src kinase (P12931 whole entry): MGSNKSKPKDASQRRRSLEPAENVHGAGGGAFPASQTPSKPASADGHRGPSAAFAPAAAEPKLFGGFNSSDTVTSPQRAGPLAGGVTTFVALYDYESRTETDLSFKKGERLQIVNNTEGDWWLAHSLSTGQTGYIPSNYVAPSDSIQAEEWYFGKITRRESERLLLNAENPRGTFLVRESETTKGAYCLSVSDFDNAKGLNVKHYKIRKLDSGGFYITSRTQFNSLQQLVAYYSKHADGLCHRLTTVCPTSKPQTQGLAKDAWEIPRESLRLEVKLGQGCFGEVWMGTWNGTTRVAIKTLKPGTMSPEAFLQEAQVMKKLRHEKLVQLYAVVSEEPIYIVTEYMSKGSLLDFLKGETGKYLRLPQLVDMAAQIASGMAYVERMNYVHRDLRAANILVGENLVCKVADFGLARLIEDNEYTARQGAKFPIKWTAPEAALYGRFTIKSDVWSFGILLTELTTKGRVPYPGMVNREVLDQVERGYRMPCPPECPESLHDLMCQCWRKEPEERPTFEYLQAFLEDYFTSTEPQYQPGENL
Procedure: The compounds are evaluated as inhibitors of human Src kinase using a spectrophotometric assay.
An assay buffer solution was prepared which consisted of 25 mM HEPES (pH 7.5), 10 mM MgCl2, 250 μM NADH, 3 mM phosphoenolpyruvate, 60 μg/mL pyruvate kinase, 21 μg/mL lactate dehydrogenase, 113 μM ATP and 28 nM Src. To 60 μL of this solution, in a 96 well plate, was added 2 μL of test compound stock solution in DMSO and the mixture allowed to equilibrate for 10 mins at 30° C. The enzyme reaction was initiated by the addition of 5 μL 10 mg/mL poly Glu, Tyr (4:1) prepared in 25 mM HEPES (pH 7.5). Final assay concentrations of Src and ATP were 25 nM and 100 μM respectively. Initial rate data was determined from the rate of change of absorbance at 340 nm (corresponding to stoichiometric consumption of NADH) using a Molecular Devices Spectramax plate reader (Sunnyvale, Calif.) over 10 mins at 30° C. For each Ki determination 8 data points covering the test compound concentration range of 0-7.5 μM were obtained in duplicate. Ki values were calculated from initial rate data by non-linear regression using the Prism software package (Prism 4.0a, Graphpad Software, San Diego, Calif.).

[1] = Solubility under the Lck assay conditions; assay type: physicochemical; details: Lck assay buffer conditions
[2] = 60 nM Lck, 500 μM ATP, poly Glu,Tyr (4:1), 30° C., read-out: Ki value, inhibition of Lck

Sequence of human Lck kinase (P06239 whole entry): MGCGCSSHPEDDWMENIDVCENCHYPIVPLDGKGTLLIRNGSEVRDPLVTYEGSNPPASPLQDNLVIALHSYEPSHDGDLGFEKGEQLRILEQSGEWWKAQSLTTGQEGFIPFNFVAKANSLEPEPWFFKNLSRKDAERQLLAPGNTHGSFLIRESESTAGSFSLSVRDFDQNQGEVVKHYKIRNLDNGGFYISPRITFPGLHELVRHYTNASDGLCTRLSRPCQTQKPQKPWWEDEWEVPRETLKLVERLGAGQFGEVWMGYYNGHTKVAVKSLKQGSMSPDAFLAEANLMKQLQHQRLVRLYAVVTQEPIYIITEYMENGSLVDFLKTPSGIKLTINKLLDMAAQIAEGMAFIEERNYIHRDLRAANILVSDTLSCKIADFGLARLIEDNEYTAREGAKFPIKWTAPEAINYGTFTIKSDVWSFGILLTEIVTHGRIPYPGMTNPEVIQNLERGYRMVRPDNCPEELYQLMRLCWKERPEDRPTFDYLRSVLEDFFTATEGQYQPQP

Ki (human Lck kinase; [2]) [nM] | Ki (human Src kinase) [nM] | solubility under the assay conditions [1] | Ki (human Lck kinase; read-out: Ki value, inhibition of Lck (expected)) [nM] | Compound
< 100 | 100 to 500 | – | – | NC(=O)c1[nH]c(C2CCCC2)nc1-c1ccc(Oc2ccccc2)cc1 [Compound I-1]
100 to 500 | > 1000 | – | – | NC(=O)c1sc(C2CCCC2)nc1-c1ccc(Oc2ccccc2)cc1 [Compound I-3, 2-Cyclopentyl-4-(4-phenoxyphenyl)thiazole-5-carboxamide]
– | > 1000 | relatively low | < 1000 | NC(=O)c1sc(C2CCCCC2)nc1-c1ccc(Oc2ccccc2)cc1 [Compound I-4]
100 to 500 | > 1000 | – | – | NC(=O)c1cn(C2CCCC2)nc1-c1ccc(Oc2ccccc2)cc1 [Compound I-2, 1-Cyclopentyl-3-(4-phenoxyphenyl)-1H-pyrazole-4-carboxamide]
